Target: ROCK2 (Homo sapiens, UniProt O75116)
Assay: ROCK assay: phosphorylation of FITC peptide substrate, LABCHIP 3000 mobility shift
Type: biochemical
Details: 5 μM ATP, 1.5 μM peptide substrate; read-out: ROCK2 Activity (ROCK IC50 range)
In short: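 IC50 values come from curve-fitting percent kinase inhibition across a compound dilution series. The reaction is started with Rho kinase variant in HEPES pH 7.5 buffer with MgCl2, Brij-35 and DTT, with 5 μM ATP, 1.5 μM FITC-labelled peptide and under 2% DMSO. After EDTA quench, product and substrate are separated by microfluidic mobility shift.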

Sequence of ROCK2 (O75116 whole entry, species assumed): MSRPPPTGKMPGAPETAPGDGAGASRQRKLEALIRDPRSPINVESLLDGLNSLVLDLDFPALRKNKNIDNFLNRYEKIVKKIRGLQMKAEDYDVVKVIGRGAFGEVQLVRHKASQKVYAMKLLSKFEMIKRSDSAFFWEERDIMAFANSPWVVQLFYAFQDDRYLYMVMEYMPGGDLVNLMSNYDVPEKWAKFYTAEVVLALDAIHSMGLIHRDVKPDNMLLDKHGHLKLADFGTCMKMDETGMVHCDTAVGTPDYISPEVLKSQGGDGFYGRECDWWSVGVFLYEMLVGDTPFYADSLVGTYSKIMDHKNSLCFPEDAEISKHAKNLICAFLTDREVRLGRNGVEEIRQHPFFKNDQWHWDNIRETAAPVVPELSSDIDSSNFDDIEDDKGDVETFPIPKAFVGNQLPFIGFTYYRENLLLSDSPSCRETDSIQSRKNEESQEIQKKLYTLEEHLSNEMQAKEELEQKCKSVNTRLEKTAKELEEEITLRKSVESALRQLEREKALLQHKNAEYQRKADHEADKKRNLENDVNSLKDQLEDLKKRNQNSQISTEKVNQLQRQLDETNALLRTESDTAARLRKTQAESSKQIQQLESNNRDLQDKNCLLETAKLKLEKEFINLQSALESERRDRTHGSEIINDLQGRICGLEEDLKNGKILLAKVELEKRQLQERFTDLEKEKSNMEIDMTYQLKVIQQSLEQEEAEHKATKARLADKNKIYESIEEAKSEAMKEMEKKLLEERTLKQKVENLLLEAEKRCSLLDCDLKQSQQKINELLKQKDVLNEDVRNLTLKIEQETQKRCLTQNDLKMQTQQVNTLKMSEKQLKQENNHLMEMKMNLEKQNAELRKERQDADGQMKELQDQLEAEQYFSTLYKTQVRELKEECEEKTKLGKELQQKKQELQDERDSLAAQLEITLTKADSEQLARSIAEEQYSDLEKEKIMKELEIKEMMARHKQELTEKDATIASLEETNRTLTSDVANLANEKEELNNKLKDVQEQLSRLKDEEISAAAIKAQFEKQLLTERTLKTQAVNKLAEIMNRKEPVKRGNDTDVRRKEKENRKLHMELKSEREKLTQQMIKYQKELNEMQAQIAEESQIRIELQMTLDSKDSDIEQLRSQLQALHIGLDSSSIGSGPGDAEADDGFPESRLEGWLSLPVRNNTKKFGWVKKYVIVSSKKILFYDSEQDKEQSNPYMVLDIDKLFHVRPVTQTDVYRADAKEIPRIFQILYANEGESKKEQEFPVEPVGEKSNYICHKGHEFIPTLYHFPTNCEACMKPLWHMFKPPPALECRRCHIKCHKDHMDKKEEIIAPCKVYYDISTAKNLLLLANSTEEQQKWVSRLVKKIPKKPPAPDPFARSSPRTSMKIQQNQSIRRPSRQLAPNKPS

`[H][C@]1(c2n[nH]c(=O)c3ccccc32)C[C@]2(C[C@@H](NC(=O)c3cnc4cc(OC(F)F)ccn34)C2)C1` (stereo partly drawn) [Example 406, 7-(difluoromethoxy)-N-((aR)-6-(4-oxo-3,4-dihydrophthalazin-1-yl)spiro[3.3]heptan-2-yl)imidazo[1,2-a]pyridine-3-carboxamide] was tested. Which IC50 did it give?
The IC50 was 0.2 to 2 nM.

For `[H][C@]1(c2n[nH]c(=O)c3ccccc32)C[C@]2(C[C@@H](NC(=O)c3cnc4ccc(F)c(C)n34)C2)C1` (stereo partly drawn) [Example 407, 6-fluoro-5-methyl-N-((aR)-6-(4-oxo-3,4-dihydrophthalazin-1-yl)spiro[3.3]heptan-2-yl)imidazo[1,2-a]pyridine-3-carboxamide], which IC50 is on record?
Its IC50 is 15.1 to 100 nM.

For `[H][C@]1(c2n[nH]c(=O)c3ccccc32)C[C@]2(C[C@@H](NC(=O)c3cnc4ccc(F)cn34)C2)C1` (stereo partly drawn) [Example 408, 6-fluoro-N-((aR)-6-(4-oxo-3,4-dihydrophthalazin-1-yl)spiro[3.3]heptan-2-yl)imidazo[1,2-a]pyridine-3-carboxamide], which IC50 is on record?
The IC50 was 2.01 to 5 nM.

`[H][C@]1(c2n[nH]c(=O)c3ccccc32)C[C@]2(C[C@@H](NC(=O)c3cnc4cc(NCC(C)(C)O)ccn34)C2)C1` (stereo partly drawn) [Example 409, 7-((2-hydroxy-2-methylpropyl)amino)-N-((aR)-6-(4-oxo-3,4-dihydrophthalazin-1-yl)spiro[3.3]heptan-2-yl)imidazo[1,2-a]pyridine-3-carboxamide,] was tested. Which IC50 did it give?
Its IC50 is 2.01 to 5 nM.

`[H][C@]1(c2n[nH]c(=O)c3ccccc32)C[C@]2(C[C@@H](NC(=O)c3cnc4cc(C)c(F)cn34)C2)C1` (stereo partly drawn) [Example 410, 6-fluoro-7-methyl-N-((aR)-6-(4-oxo-3,4-dihydrophthalazin-1-yl)spiro[3.3]heptan-2-yl)imidazo[1,2-a]pyridine-3-carboxamide] was tested. Which IC50 did it give?
The IC50 was 2.01 to 5 nM.

How did the IC50 turn out when `[H][C@]1(c2n[nH]c(=O)c3ccccc32)C[C@]2(C[C@@H](NC(=O)c3cnc4c(F)cc(F)cn34)C2)C1` (stereo partly drawn) [Example 411, 6,8-difluoro-N-((aR)-6-(4-oxo-3,4-dihydrophthalazin-1-yl)spiro[3.3]heptan-2-yl)imidazo[1,2-a]pyridine-3-carboxamide] was run?
The IC50 was 5.1 to 15 nM.

Which IC50 does the source give for `[H][C@]1(c2n[nH]c(=O)c3ccccc32)C[C@]2(C[C@@H](NC(=O)c3cnc4cc(C)ccn34)C2)C1` (stereo partly drawn) [Example 412, 7-methyl-N-((aR)-6-(4-oxo-3,4-dihydrophthalazin-1-yl)spiro[3.3]heptan-2-yl)imidazo[1,2-a]pyridine-3-carboxamide] here?
The IC50 was 2.01 to 5 nM.

Which IC50 does the source give for `[H][C@]1(c2n[nH]c(=O)c3ccccc32)C[C@]2(C[C@@H](NC(=O)c3cnc4c(OCc5ccccc5)cccn34)C2)C1` (stereo partly drawn) [Example 413, 8-(benzyloxy)-N-((aR)-6-(4-oxo-3,4-dihydrophthalazin-1-yl)spiro[3.3]heptan-2-yl)imidazo[1,2-a]pyridine-3-carboxamide] here?
Its IC50 is 0.2 to 2 nM.

Which IC50 does the source give for `[H][C@]1(c2n[nH]c(=O)c3ccccc32)C[C@]2(C[C@@H](NC(=O)c3cnc4cc(SC)ccn34)C2)C1` (stereo partly drawn) [Example 414, 7-(methylthio)-N-((aR)-6-(4-oxo-3,4-dihydrophthalazin-1-yl)spiro[3.3]heptan-2-yl)imidazo[1,2-a]pyridine-3-carboxamide] here?
The IC50 was 0.2 to 2 nM.

How did the IC50 turn out when `[H][C@]1(c2n[nH]c(=O)c3ccccc32)C[C@]2(C[C@@H](NC(=O)c3cc4n(n3)CCNC4=O)C2)C1` (stereo partly drawn) [Example 415, 4-oxo-N-((aR)-6-(4-oxo-3,4-dihydrophthalazin-1-yl)spiro[3,3]heptan-2-yl)-4,5,6,7-tetrahydropyrazolo[1,5-a]pyrazine-2-carboxamide] was run?
Its IC50 is 100 to 2100 nM.

`[H][C@]1(c2n[nH]c(=O)c3ccccc32)C[C@]2(C[C@@H](NC(=O)c3ccc(-c4cn[nH]c4)c(OC)c3)C2)C1` (stereo partly drawn) [Example 416, 3-methoxy-N-((aR)-6-(4-oxo-3,4-dihydrophthalazin-1-yl)spiro[3.3]heptan-2-yl)-4-(1H-pyrazol-4-yl)benzamide] was tested. Which IC50 did it give?
The IC50 was 0.2 to 2 nM.

How did the IC50 turn out when `[H][C@]1(c2n[nH]c(=O)c3ccccc32)C[C@]2(C[C@@H](NC(=O)c3ccc(-c4cn[nH]c4)c(C#N)c3)C2)C1` (stereo partly drawn) [Example 417, 3-cyano-N-((aR)-6-(4-oxo-3,4-dihydrophthalazin-1-yl)spiro[3.3]heptan-2-yl)-4-(1H-pyrazol-4-yl)benzamide] was run?
Its IC50 is 0.2 to 2 nM.

How did the IC50 turn out when `[H][C@]1(c2n[nH]c(=O)c3ccccc32)C[C@]2(C[C@@H](NC(=O)c3ccc(-c4cn[nH]c4)c(C)c3)C2)C1` (stereo partly drawn) [Example 418, 3-methyl-N-((aR)-6-(4-oxo-3,4-dihydrophthalazin-1-yl)spiro[3,3]heptan-2-yl)-4-(1H-pyrazol-4-yl)benzamide] was run?
Its IC50 is 0.2 to 2 nM.

Which IC50 does the source give for `[H][C@]1(c2n[nH]c(=O)c3ccccc32)C[C@]2(C[C@@H](NC(=O)c3ccc(-c4cn[nH]c4)cc3OC)C2)C1` (stereo partly drawn) [Example 419, 2-methoxy-N-((aR)-6-(4-oxo-3,4-dihydrophthalazin-1-yl)spiro[3.3]heptan-2-yl)-4-(1H-pyrazol-4-yl)benzamide] here?
The IC50 was 2.01 to 5 nM.

With `[H][C@]1(c2n[nH]c(=O)c3ccccc32)C[C@]2(C[C@@H](NC(=O)c3cc4cccc(-c5cnn(C)c5)c4[nH]3)C2)C1` (stereo partly drawn) [Example 420, 7-(1-methyl-1H-pyrazol-4-yl)-N-((aR)-6-(4-oxo-3,4-dihydrophthalazin-1-yl)spiro[3.3]heptan-2-yl)-1H-indole-2-carboxamide] as the compound, how does the IC50 read?
Its IC50 is 5.1 to 15 nM.

`[H][C@]1(c2n[nH]c(=O)c3ccccc32)C[C@]2(C[C@@H](NC(=O)c3ccc4c(c3)COc3cncnc3-4)C2)C1` (stereo partly drawn) [Example 421, N-((aR)-6-(4-oxo-3,4-dihydrophthalazin-1-yl)spiro[3.3]heptan-2-yl)-6H-isochromeno[4,3-d]pyrimidine-8-carboxamide] was tested. Which IC50 did it give?
Its IC50 is 15.1 to 100 nM.

Which IC50 does the source give for `[H][C@]1(c2n[nH]c(=O)c3ccccc32)C[C@]2(C[C@@H](NC(=O)c3ccc(-c4cnn(C)c4)c(OC)c3)C2)C1` (stereo partly drawn) [Example 422, 3-methoxy-4-(1-methyl-1H-pyrazol-4-yl)-N-((aR)-6-(4-oxo-3,4-dihydrophthalazin-1-yl)spiro[3.3]heptan-2-yl)benzamide] here?
The IC50 was 2.01 to 5 nM.

`[H][C@]1(c2n[nH]c(=O)c3ccccc32)C[C@]2(C[C@@H](NC(=O)c3ccc(-c4cnn(C)c4)c(F)c3)C2)C1` (stereo partly drawn) [Example 423, 3-fluoro-4-(1-methyl-1H-pyrazol-4-yl)-N-((aR)-6-(4-oxo-3,4-dihydrophthalazin-1-yl)spiro[3.3]heptan-2-yl)benzamide] was tested. Which IC50 did it give?
Its IC50 is 2.01 to 5 nM.

How did the IC50 turn out when `[H][C@]1(c2n[nH]c(=O)c3ccccc32)C[C@]2(C[C@@H](NC(=O)c3ccc(-c4cnn(C)c4)nc3)C2)C1` (stereo partly drawn) [Example 425, 6-(1-methyl-1H-pyrazol-4-yl)-N-((aR)-6-(4-oxo-3,4-dihydrophthalazin-1-yl)spiro[3.3]heptan-2-yl)nicotinamide] was run?
Its IC50 is 5.1 to 15 nM.

Which IC50 does the source give for `[H][C@]1(c2n[nH]c(=O)c3ccccc32)C[C@]2(C[C@@H](NC(=O)c3cnc4cc(C(C)=O)ccn34)C2)C1` (stereo partly drawn) [Example 426, 7-acetyl-N-((aR)-6-(4-oxo-3,4-dihydrophthalazin-1-yl)spiro[3.3]heptan-2-yl)imidazo[1,2-a]pyridine-3-carboxamide] here?
The IC50 was 0.2 to 2 nM.

Which IC50 does the source give for `[2H]C([2H])([2H])n1cc(-c2ccc(C(=O)N[C@H]3CC4(C3)C[C@H](c3n[nH]c(=O)c5ccccc53)C4)cc2F)cn1` (stereo partly drawn) [Example 427, 3-fluoro-4-(1-d3-methyl-1H-pyrazol-4-yl)-N-((aR)-6-(4-oxo-3,4-dihydrophthalazin-1-yl)spiro[3.3]heptan-2-yl)benzamide] here?
Its IC50 is 5.1 to 15 nM.

Which IC50 does the source give for `[H][C@]1(c2n[nH]c(=O)c3ccccc32)C[C@]2(C[C@@H](NC(=O)c3ccc(-c4cnn(C(F)F)c4)c(F)c3)C2)C1` (stereo partly drawn) [Example 428, 4-(1-(difluoromethyl)-1H-pyrazol-4-yl)-3-fluoro-N-((aR)-6-(4-oxo-3,4-dihydrophthalazin-1-yl)spiro[3.3]heptan-2-yl)benzamide] here?
Its IC50 is 5.1 to 15 nM.

Which IC50 does the source give for `[H][C@]1(c2n[nH]c(=O)c3ccccc32)C[C@]2(C[C@@H](NC(=O)c3cnc4cc(C(C)(C)O)ccn34)C2)C1` (stereo partly drawn) [Example 429, 7-(2-hydroxypropan-2-yl)-N-((aR)-6-(4-oxo-3,4-dihydrophthalazin-1-yl)spiro[3.3]heptan-2-yl)imidazo[1,2-a]pyridine-3-carboxamide] here?
The IC50 was 15.1 to 100 nM.

For `[H][C@]1(c2n[nH]c(=O)c3ccccc32)C[C@]2(C[C@@H](NC(=O)c3cnc4cc(C(C)O)ccn34)C2)C1` (stereo partly drawn) [Example 430, 7-(1-hydroxyethyl)-N-((aR)-6-(4-oxo-3,4-dihydrophthalazin-1-yl)spiro[3.3]heptan-2-yl)imidazo[1,2-a]pyridine-3-carboxamide], which IC50 is on record?
Its IC50 is 5.1 to 15 nM.

For `[H][C@]1(c2n[nH]c(=O)c3ccccc32)C[C@]2(C[C@@H](NC(=O)c3cnc4cc(OC5CCS(=O)(=O)CC5)ccn34)C2)C1` (stereo partly drawn) [Example 431, 7-((1,1-dioxidotetrahydro-2H-thiopyran-4-yl)oxy)-N-((aR)-6-(4-oxo-3,4-dihydrophthalazin-1-yl)spiro[3.3]heptan-2-yl)imidazo[1,2-a]pyridine-3-carboxamide], which IC50 is on record?
Its IC50 is 0.2 to 2 nM.

How did the IC50 turn out when `[H][C@]1(c2n[nH]c(=O)c3ccccc32)C[C@]2(C[C@@H](NC(=O)c3cnc4cc(OCCC(F)(F)F)ccn34)C2)C1` (stereo partly drawn) [Example 432, N-((aR)-6-(4-oxo-3,4-dihydrophthalazin-1-yl)spiro[3.3]heptan-2-yl)-7-(3,3,3-trifluoro-propoxy)imidazo[1,2-a]pyridine-3-carboxamide] was run?
The IC50 was 2.01 to 5 nM.

For `[H][C@]1(c2n[nH]c(=O)c3ccccc32)C[C@]2(C[C@@H](NC(=O)c3cnc4cc(OC(CF)CF)ccn34)C2)C1` (stereo partly drawn) [Example 433, 7-((1,3-difluoropropan-2-yl)oxy)-N-((aR)-6-(4-oxo-3,4-dihydrophthalazin-1-yl)spiro[3.3]heptan-2-yl)imidazo[1,2-a]pyridine-3-carboxamide], which IC50 is on record?
Its IC50 is 2.01 to 5 nM.

For `[H][C@]1(c2n[nH]c(=O)c3ccccc32)C[C@]2(C[C@@H](NC(=O)c3cnc4cc(Oc5ccccn5)ccn34)C2)C1` (stereo partly drawn) [Example 434, N-((aR)-6-(4-oxo-3,4-dihydrophthalazin-1-yl)spiro[3.3]heptan-2-yl)-7-(pyridin-2-yloxy)imidazo[1,2-a]pyridine-3-carboxamidc], which IC50 is on record?
The IC50 was 0.2 to 2 nM.

— patent US9902702B2, “Spirocycloheptanes as inhibitors of rock” (BRISTOL-MYERS SQUIBB COMPANY, priority 2014, dated 2018)
